The test system of data set [1] is NCI-H1703. Nature of the data set: Induction of ferroptosis in human NCI-H1703 cells assessed as cell viability incubated for 72 hrs by CellTiter-Glo luminescent cell viability assay. Type of data set: functional, cell-based. As to conditions: NCI-H1703, 72 h. In general terms: Cellular ATP, detected with luciferase, serves as a proxy for viable cell number.
In data set [2] the test system is NCI-H1703. Nature of the data set: Induction of ferroptosis in human NCI-H1703 cells assessed as cell viability incubated for 72 hrs in presence of ferrostatin-1 by CellTiter-Glo luminescent cell viability assay. Type of data set: functional, cell-based. The conditions noted are these: NCI-H1703, 72 h.
The test system of data set [3] is HT-1080. Nature of the data set: Induction of ferroptosis in GPX4-dependent human HT-1080 cells assessed as cell viability incubated for […] by time-course cell viability assay. The class given is functional, cell-based.
In data set [4] the test system is HT-1080. Nature of the data set: Induction of ferroptosis in GPX4-dependent human HT-1080 cells assessed as cell viability incubated for 3 hrs by time-course cell viability assay. Type of data set: functional, cell-based. As to conditions: HT-1080, 3 h.
The subject of data set [5] is HT-1080. Nature of the data set: Induction of ferroptosis in GPX4-dependent human HT-1080 cells assessed as cell viability incubated for 6 hrs by time-course cell viability assay. The conditions noted are these: HT-1080, 6 h. Type of data set: functional, cell-based.
In data set [6] the test system is HT-1080. The data set is described as follows: Induction of ferroptosis in GPX4-dependent human HT-1080 cells assessed as cell viability incubated for 24 hrs by time-course cell viability assay. The class given is functional, cell-based. The conditions noted are these: HT-1080, 24 h.
Data set [7] relates to HT-1080. The data set is described as follows: Induction of ferroptosis in GPX4-dependent human HT-1080 cells assessed as cell viability incubated for […] in presence of 40% human plasma by time-course cell viability assay. The class given is functional, cell-based.
Data set [8] relates to HT-1080. The data set is described as follows: Induction of ferroptosis in GPX4-dependent human HT-1080 cells assessed as cell viability incubated for 3 hrs in presence of 40% human plasma by time-course cell viability assay. Type of data set: functional, cell-based. As to conditions: HT-1080, 3 h.
Data set [9] has as its system HT-1080. The data set is described as follows: Induction of ferroptosis in GPX4-dependent human HT-1080 cells assessed as cell viability incubated for 6 hrs in presence of 40% human plasma by time-course cell viability assay. Type of data set: functional, cell-based. The conditions noted are these: HT-1080, 6 h.
Data set [10] relates to HT-1080. Nature of the data set: Induction of ferroptosis in GPX4-dependent human HT-1080 cells assessed as cell viability incubated for 24 hrs in presence of 40% human plasma by time-course cell viability assay. Type of data set: functional, cell-based. As to conditions: HT-1080, 24 h.
The target of data set [11] is Phospholipid hydroperoxide glutathione peroxidase GPX4 (Mus musculus) (UniProt O70325). The data set is described as follows: In vivo inhibition of GPX4 in SCID/Beige mouse assessed as increase in malondialdehyde level in kidney homogenate at 100 to 200 mg/kg, ip by TBAR assay. The class given is functional, organism-based. The conditions noted are these: dose 100-200 mg/kg.

Data set [12] shares this target. The data set is described as follows: In vivo inhibition of GPX4 in SCID/Beige mouse assessed as increase in malondialdehyde level in plasma at 100 to 200 mg/kg, ip by TBAR assay. The class given is functional, organism-based. The conditions noted are these: dose 100-200 mg/kg.
Data set [13] shares this target. The data set is described as follows: In vivo inhibition of GPX4 in SCID/Beige mouse assessed as fold increase in PTGS2 transcription in kidney homogenate at 100 to 200 mg/kg, ip by qPCR analysis relative to vehicle treated control. Type of data set: functional, organism-based. The conditions noted are these: dose 100-200 mg/kg.
Data set [14] has as its system WSUDLCL2. The data set is described as follows: Induction of ferroptosis in human WSUDLCL2 cells assessed as cell viability incubated for 72 hrs by CellTiter-Glo luminescent cell viability assay. Type of data set: functional, cell-based.
Data set [15] has as its system WSUDLCL2. The data set is described as follows: Induction of ferroptosis in human WSUDLCL2 cells assessed as cell viability incubated for 72 hrs in presence of ferrostatin-1 by CellTiter-Glo luminescent cell viability assay. The class given is functional, cell-based.
Data set [16] has as its system WSUDLCL2. The data set is described as follows: Induction of ferroptosis in human WSUDLCL2 cells assessed as cell viability incubated for 72 hrs in presence of liproxstatin-1 by CellTiter-Glo luminescent cell viability assay. Type of data set: functional, cell-based.
Data set [17] deals with WSUDLCL2. The data set is described as follows: Effect on tumor volume in human WSUDLCL2 cells subcutaneously inoculated in CB17 SCID-Beige mouse tumor model at 50 to 100 mg/kg, ip measured upto day 20. Type of data set: functional, organism-based. As to conditions: dose 50-100 mg/kg.
The subject of data set [18] is WSUDLCL2. Nature of the data set: In vivo target engagement at GPX4 in human WSUDLCL2 cells subcutaneously inoculated in CB17 SCID-Beige mouse assessed as target engagement in tumor at 50 to 100 mg/kg, ip measured upto day 20 by Western blot analysis. The class given is functional, organism-based. As to conditions: dose 50-100 mg/kg.
The nature of data set [19]: Plasma clearance in iv dosed mouse. The class given is ADME, organism-based.
The nature of data set [20]: Metabolic stability in mouse liver microsomes assessed as unbound intrinsic clearance. The class given is ADME, Microsome. A general note: Liver microsomes are a subcellular fraction often used to study metabolism.
Data set [21] is described as follows: Metabolic stability in human liver microsomes assessed as unbound intrinsic clearance. Type of data set: ADME, Microsome.
Data set [22] can be described thus: Stability in mouse plasma assessed as half life. The class given is ADME, cell-free.
Data set [23] is described as follows: Stability in human plasma assessed as half life. Type of data set: ADME, cell-free.
Data set [24] in a line: Aqueous solubility of the compound at pH 7. Type of data set: physicochemical.
Data set [25] is described as follows: Aqueous solubility of the compound at pH 1. Type of data set: physicochemical.
Data set [26] in a line: Half life in CB17 SCID-Beige mouse subcutaneously inoculated with WSUDLCL2 cells at 100 mg/kg, ip. The class given is ADME, organism-based. As to conditions: in vivo.
Data set [27] in a line: Cmax in CB17 SCID-Beige mouse subcutaneously inoculated with WSUDLCL2 cells at 100 mg/kg, ip. The class given is ADME, organism-based. Details: dose 100 mg/kg, route ip. As to conditions: in vivo.
Data set [28] is described as follows: AUC in CB17 SCID-Beige mouse subcutaneously inoculated with WSUDLCL2 cells at 100 mg/kg, ip. As to conditions: in vivo. Type of data set: ADME, organism-based. Further details: dose 100 mg/kg, route ip.
Data set [29] can be described thus: Half life in CB17 SCID-Beige mouse subcutaneously inoculated with WSUDLCL2 cells at 100 mg/kg, sc. The class given is ADME, organism-based. As to conditions: in vivo.
The nature of data set [30]: Cmax in CB17 SCID-Beige mouse subcutaneously inoculated with WSUDLCL2 cells at 100 mg/kg, sc. The class given is ADME, organism-based. Details: dose 100 mg/kg, route sc. The conditions noted are these: in vivo.
A short description of data set [31]: AUC in CB17 SCID-Beige mouse subcutaneously inoculated with WSUDLCL2 cells at 100 mg/kg, sc. Details: dose 100 mg/kg, route sc. The class given is ADME, organism-based. As to conditions: in vivo.
In data set [32] the test system is HT-1080. The data set is described as follows: Induction of ferroptosis in GPX4-dependent human HT-1080 cells assessed as cell viability measured immediately after addition of compound by time-course cell viability assay. Type of data set: functional, cell-based.
Data set [33] concerns the target Phospholipid hydroperoxide glutathione peroxidase GPX4 (Mus musculus) (UniProt O70325). Nature of the data set: Target engagement at GPX4 in mouse 4T1 cells assessed as mass change between covalently bound protein and unbound protein at 0.01 to 1 ug/ml measured after 2 hrs by Western blot analysis. Type of data set: cell-based. The conditions noted are these: dose 0.01-1 µg/ml. For orientation: A western blot detects proteins with antibodies after separation by electrophoresis.

Calls of active or inactive are those of the source. Bounds are passed on as bounds.

The term EC50 denotes the midpoint of the concentration-response curve. As usually defined, the clearance is a measure of how efficiently the substance is removed, as volume per time. Low readings indicate a low capacity for elimination, high ones a high capacity for elimination. A word on the half-life: it is the time needed for the level to fall by half in the phase considered. By solubility is commonly meant the dissolved amount per volume that the medium holds. A lower solubility goes with little dissolved substance. As a reminder, the Cmax is the maximum level reached in the sampled fluid or tissue.

Chain of Phospholipid hydroperoxide glutathione peroxidase GPX4 (Mus musculus) (O70325 whole entry): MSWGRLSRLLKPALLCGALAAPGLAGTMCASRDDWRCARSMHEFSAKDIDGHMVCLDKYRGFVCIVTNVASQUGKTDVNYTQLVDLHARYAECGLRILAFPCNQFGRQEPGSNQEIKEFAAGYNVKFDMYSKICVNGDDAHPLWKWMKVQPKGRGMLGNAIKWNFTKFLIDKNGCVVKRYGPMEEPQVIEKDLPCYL

For the compound `COC(=O)[C@H]1Cc2c([nH]c3ccccc23)[C@H](c2ccc(S(C)(=O)=O)cc2)N1C(=O)CCl`, the EC50 with NCI-H1703 [1] was found to be 117 nM; with NCI-H1703 [2], 4740 nM; with HT-1080 [3] it was 850 nM; in the data set on HT-1080 [4] it was 270 nM; with HT-1080 [5], 170 nM; in the data set on HT-1080 [6] it was 90 nM. In addition, the EC50 with HT-1080 [7] was found to be 1260 nM; in the data set on HT-1080 [8], 770 nM; in the data set with HT-1080 [9], 490 nM; in the data set with HT-1080 [10] it was 520 nM. Moreover, the result (in [11]; in data set [12]; in data set [13]; in the data set on WSUDLCL2 [14]; in the data set with WSUDLCL2 [18]) was Active. Moreover, the fold change (FC) in data set [13] was determined as 8. For the same compound, the outcome in the data set with WSUDLCL2 [15], in the data set with WSUDLCL2 [16] and in the data set on WSUDLCL2 [17] was inactive.

As for `COC(=O)c1ccc([C@H]2c3[nH]c4ccccc4c3C[C@H](C(=O)OC)N2C(=O)CCl)cc1`, the EC50 with NCI-H1703 [1] was 80 nM; with HT-1080 [32], 590 nM; in the data set on HT-1080 [3] it was 160 nM; with HT-1080 [4], 80 nM; in the data set with HT-1080 [5], 60 nM; with HT-1080 [7] it was 1420 nM. In addition, the figures for the concentration for a half-maximal effect (EC50) in the data set on HT-1080 [8], with HT-1080 [9] and with HT-1080 [10] were 1010 nM, 750 nM and 880 nM, respectively. Also, in [19], the clearance was 478 mL/min/kg. The CL free in data set [20] amounted to 8720 mL/min/kg; in [21], 195 mL/min/kg. The half-life in data set [22] was 0.167 h; in [23], 14.6 h; in [26] it was 1.8 h; in data set [29], 4.1 h. Further, the solubility in [24] and in data set [25] was less than 0.8 µM in each case. In addition, the results for the Cmax in data set [27] and in data set [30] were 650 ng/mL and 480 ng/mL, respectively. Further, the AUC in data set [28] was determined as 2.79 µg/h/mL; in [31], 2.67 µg/h/mL. The result (in data set [33]; in the data set on WSUDLCL2 [14]) was Active. Further, the outcome in the data set on WSUDLCL2 [15] and in the data set with WSUDLCL2 [16] was inactive.

The values are drawn from ChEMBL document CHEMBL5375942, “Discovery of a Potent Chloroacetamide GPX4 Inhibitor with Bioavailability to Enable Target Engagement in Mice, a Potential Tool Compound for Inducing Ferroptosis In Vivo” (J Med Chem, 2023).
